Data taken from ChEMBL document CHEMBL1201862, “PubChem BioAssay data set” (2004).
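Dose response: 5 concentrations. Exposure: 48 h. Format: 96-well plates. Endpoint: linear interpolation; highest concentration if not reached. GI50 = concentration required for 50% inhibition of growth.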 Calls of active or inactive are those of the source. No stated cut-off is given here; in the data, active = GI50 up to about 1.1 µM and inactive = higher.

Legend:
Experiment in all cases: inhibition of tumour cell growth, NCI panel, 48 h
A498 = tested on: A498
ACHN = tested on: ACHN
BT-549 = tested on: BT-549
EKVX = tested on: EKVX
HCC 2998 = tested on: HCC 2998
HCT-116 = tested on: HCT-116
HOP-62 = tested on: HOP-62
K562 = tested on: K562
LXFL 529 = tested on: LXFL 529
MDA-MB-435 = tested on: MDA-MB-435
MOLT-4 = tested on: MOLT-4
NCI-H522 = tested on: NCI-H522
NCI/ADR-RES = tested on: NCI/ADR-RES
OVCAR-4 = tested on: OVCAR-4
RXF 393 = tested on: RXF 393
SF-295 = tested on: SF-295
SK-MEL-5 = tested on: SK-MEL-5
SK-OV-3 = tested on: SK-OV-3
TK-10 = tested on: TK-10
UACC-257 = tested on: UACC-257

| Compound | GI50 (A498) | GI50 (ACHN) | GI50 (BT-549) | GI50 (EKVX) | GI50 (HCC 2998) | GI50 (HCT-116) | GI50 (HOP-62) | GI50 (K562) | GI50 (LXFL 529) | GI50 (MDA-MB-435) | GI50 (MOLT-4) | GI50 (NCI-H522) | GI50 (NCI/ADR-RES) | GI50 (OVCAR-4) | GI50 (RXF 393) | GI50 (SF-295) | GI50 (SK-MEL-5) | GI50 (SK-OV-3) | GI50 (TK-10) | GI50 (UACC-257) |
| --- | --- | --- | --- | --- | --- | --- | --- | --- | --- | --- | --- | --- | --- | --- | --- | --- | --- | --- | --- | --- |
| CCCCCCCC/C=C1\CCC(CN2CCOCC2)C1=O (centres undefined) | 15.8 µM (inactive) | 16.4 µM (inactive) | 10.8 µM (inactive) | 17.7 µM (inactive) | 11.5 µM (inactive) | 3.53 µM (inactive) | 15.1 µM (inactive) | 2.74 µM (inactive) | 4.54 µM (inactive) | 4.81 µM (inactive) | 2.13 µM (inactive) | 2.69 µM (inactive) | 3.79 µM (inactive) | 13.3 µM (inactive) | 12.5 µM (inactive) | 14.7 µM (inactive) | 10.1 µM (inactive) | 19.9 µM (inactive) | 2.77 µM (inactive) | 8.67 µM (inactive) |
| CC[C@](C)(O)C(=O)O[C@H]1C(=O)O[C@@H]2C[C@H]3C(C)=CC(=O)[C@@H](O)[C@]3(C)[C@H]3[C@@]4(O)OC[C@]32[C@@H]1[C@@H](C)[C@H]4O [GLAUCARUBINONE] | 0.32 µM (active) | 0.292 µM (active) | 0.229 µM (active) | 0.0545 µM (active) | 0.0679 µM (active) | 0.05 µM (active) | 0.0794 µM (active) | 0.05 µM (active) | < 0.0111 µM (active) | 1.4 µM (inactive) | 0.05 µM (active) | – | 2.27 µM (inactive) | 0.321 µM (active) | 0.05 µM (active) | 0.116 µM (active) | 0.0442 µM (active) | 1.02 µM (active) | 0.39 µM (active) | 0.0675 µM (active) |
